Patent US20100298141A1, “SUBSTITUTED PYRIDINE N-OXIDE HERBICIDES” (E. I. DU PONT DE NEMOURS AND COMPANY, priority 2007, published 2010)

Tests used:
wheat = assay: Test A pre-/postemergence greenhouse test; format: in vivo, Triticum aestivum; conditions: for Wheat plant response rating: 0 to 100 scale; for Plant response rating, Wheat: 0 to 100 scale where 0 is no effect and 100 is complete control
In short: (§1)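 Pots of loam–sand soil sown with the test species are sprayed preemergence on the soil surface; emerged seedlings (1–2 leaves, 2–10 cm) are sprayed postemergence at the same time. The vehicle is a non-phytotoxic solvent mixture with surfactant. Injury is scored visually after ~10 d in greenhouse.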

redroot pigweed = assay: Test A pre-/postemergence greenhouse test; format: in vivo, Amaranthus retroflexus; conditions: for Pigweed plant response rating: 0 to 100 scale; for Plant response rating, Pigweed: 0 to 100 scale where 0 is no effect and 100 is complete control
In short: as §1

morningglory = assay: Test A pre-/postemergence greenhouse test; format: in vivo, Ipomoea spp.; conditions: for Morningglory plant response rating: 0 to 100 scale; for Plant response rating, Morningglory: 0 to 100 scale where 0 is no effect and 100 is complete control
In short: as §1

giant foxtail = assay: Test A pre-/postemergence greenhouse test; format: in vivo, Setaria faberi; conditions: for Foxtail, Giant plant response rating: 0 to 100 scale; for Plant response rating, Foxtail, Giant: 0 to 100 scale where 0 is no effect and 100 is complete control
In short: as §1

velvetleaf = assay: Test A pre-/postemergence greenhouse test; format: in vivo, Abutilon theophrasti; conditions: for Velvetleaf plant response rating: 0 to 100 scale; for Plant response rating, Velvetleaf: 0 to 100 scale where 0 is no effect and 100 is complete control
In short: as §1

duck salad = assay: Test C flooded paddy test; format: in vivo, Heteranthera limosa; conditions: Flood
Excerpt: (§2) At time of treatment, test pots were flooded to 3 cm above the soil surface, treated by application of test compounds directly to the paddy water, and then maintained at that water depth for the duration of the test. Treated plants and controls were maintained in a greenhouse for 13 to 15 days, after which time all species were compared to controls and visually evaluated. […] A dash (-) response means no test result.

barnyardgrass [1] = assay: Test A pre-/postemergence greenhouse test; format: in vivo, Echinochloa crus-galli; conditions: for Barnyardgrass plant response rating: 0 to 100 scale; for Plant response rating, Barnyardgrass: 0 to 100 scale where 0 is no effect and 100 is complete control
In short: as §1

umbrella sedge = assay: Test C flooded paddy test; format: in vivo, Cyperus difformis; conditions: Flood
Excerpt: as §2

corn = assay: Test A pre-/postemergence greenhouse test; format: in vivo, Zea mays; conditions: for Corn plant response rating: 0 to 100 scale; for Plant response rating, Corn: 0 to 100 scale where 0 is no effect and 100 is complete control
In short: as §1

barnyardgrass [2] = assay: Test C flooded paddy test; format: in vivo, Echinochloa crus-galli; conditions: Flood
Excerpt: as §2

rice = assay: Test C flooded paddy test; format: in vivo, Oryza sativa; conditions: Flood
Excerpt: as §2

crabgrass = assay: Test A pre-/postemergence greenhouse test; format: in vivo, Digitaria sanguinalis; conditions: for Crabgrass, Large plant response rating: 0 to 100 scale; for Plant response rating, Crabgrass, Large: 0 to 100 scale where 0 is no effect and 100 is complete control
In short: as §1

[3] = Postemergence, 125 g ai/ha, 0 is no effect, 100 is complete control
[4] = Postemergence, 500 g ai/ha, 0 is no effect, 100 is complete control
[5] = Preemergence, 125 g ai/ha, 0 no effect, 100 complete control
[6] = 31 g ai/ha, scale 0 to 100 (0 no effect, 100 complete control)
[7] = 62 g ai/ha, scale 0 to 100, 0 no effect, 100 complete control, 13 to 15 days
[8] = 125 g ai/ha, scale 0 to 100, 0 no effect, 100 complete control, 13 to 15 days
[9] = 250 g ai/ha, scale 0 to 100 (0 no effect, 100 complete control)
[10] = 250 g ai/ha, scale 0 to 100, 0 no effect, 100 complete control, 13 to 15 days
[11] = 62 g ai/ha, scale 0 to 100 (0 no effect, 100 complete control)

## Cn1nc(C(F)(F)F)c(C(Cl)S(=O)(=O)c2ccc(Cl)c[n+]2[O-])c1Cl (racemic) [Compound 21]
wheat; [3]
  Wheat plant response rating: 0
wheat; [4]
  Wheat plant response rating: 0
wheat; [5]
  Wheat plant response rating: 0
wheat; Preemergence, 500 g ai/ha
  Plant response rating, Wheat: 0
Redroot pigweed; [3]
  Pigweed plant response rating: 0
Redroot pigweed; [4]
  Pigweed plant response rating: 0
Redroot pigweed; [5]
  Pigweed plant response rating: 40
morningglory; [3]
  Morningglory plant response rating: 0
morningglory; [4]
  Morningglory plant response rating: 0
morningglory; Preemergence, 500 g ai/ha
  Plant response rating, Morningglory: 0
Giant foxtail; [3]
  Foxtail, Giant plant response rating: 0
Giant foxtail; [4]
  Foxtail, Giant plant response rating: 40
Giant foxtail; [5]
  Foxtail, Giant plant response rating: 80
Giant foxtail; Preemergence, 500 g ai/ha
  Plant response rating, Foxtail, Giant: 90
velvetleaf; [3]
  Velvetleaf plant response rating: 0
velvetleaf; [4]
  Velvetleaf plant response rating: 0
velvetleaf; [5]
  Velvetleaf plant response rating: 0
velvetleaf; Preemergence, 500 g ai/ha
  Plant response rating, Velvetleaf: 0
Duck salad; [6]
  Plant response rating, Ducksalad: 0
Duck salad; [7]
  Plant response rating, Ducksalad: 0
Duck salad; [8]
  Plant response rating, Ducksalad: 0
Duck salad; [9]
  Plant response rating, Ducksalad: 90
Barnyardgrass [1]; [3]
  Barnyardgrass plant response rating: 0
Barnyardgrass [1]; [4]
  Barnyardgrass plant response rating: 30
Barnyardgrass [1]; [5]
  Barnyardgrass plant response rating: 60
Barnyardgrass [1]; Preemergence, 500 g ai/ha
  Plant response rating, Barnyardgrass: 90
Umbrella sedge; [6]
  Plant response rating, Sedge, Umbrella: 0
Umbrella sedge; [7]
  Plant response rating, Sedge, Umbrella: 0
Umbrella sedge; [8]
  Plant response rating, Sedge, Umbrella: 40
Umbrella sedge; [10]
  Plant response rating, Sedge, Umbrella: 90
corn; [3]
  Corn plant response rating: 0
corn; [4]
  Corn plant response rating: 0
corn; [5]
  Corn plant response rating: 0
corn; Preemergence, 500 g ai/ha
  Plant response rating, Corn: 0
Barnyardgrass [2]; [6]
  Plant response rating, Barnyardgrass: 0
Barnyardgrass [2]; [7]
  Plant response rating, Barnyardgrass: 0
Barnyardgrass [2]; [8]
  Plant response rating, Barnyardgrass: 0
Barnyardgrass [2]; [9]
  Plant response rating, Barnyardgrass: 20
rice; [6]
  Plant response rating, Rice: 0
rice; [7]
  Plant response rating, Rice: 0
rice; [8]
  Plant response rating, Rice: 0
rice; [9]
  Plant response rating, Rice: 0
crabgrass; [3]
  Crabgrass, Large plant response rating: 20
crabgrass; [4]
  Crabgrass, Large plant response rating: 40
crabgrass; [5]
  Crabgrass, Large plant response rating: 60
crabgrass; Preemergence, 500 g ai/ha
  Plant response rating, Crabgrass, Large: 80

## CC(c1c(C(F)(F)F)nn(C)c1OC(F)F)S(=O)(=O)c1ccc(Br)c[n+]1[O-] (racemic) [Compound 23]
wheat; [3]
  Wheat plant response rating: 0
wheat; [4]
  Wheat plant response rating: 0
wheat; [5]
  Wheat plant response rating: 0
wheat; Preemergence, 500 g ai/ha
  Plant response rating, Wheat: 0
Redroot pigweed; [3]
  Pigweed plant response rating: 0
Redroot pigweed; [4]
  Pigweed plant response rating: 50
Redroot pigweed; [5]
  Pigweed plant response rating: 100
Redroot pigweed; Preemergence, 500 g ai/ha
  Plant response rating, Pigweed: 100
morningglory; [3]
  Morningglory plant response rating: 0
morningglory; [4]
  Morningglory plant response rating: 0
morningglory; [5]
  Morningglory plant response rating: 0
morningglory; Preemergence, 500 g ai/ha
  Plant response rating, Morningglory: 0
Giant foxtail; [3]
  Foxtail, Giant plant response rating: 0
Giant foxtail; [4]
  Foxtail, Giant plant response rating: 40
Giant foxtail; [5]
  Foxtail, Giant plant response rating: 30
Giant foxtail; Preemergence, 500 g ai/ha
  Plant response rating, Foxtail, Giant: 80
velvetleaf; [3]
  Velvetleaf plant response rating: 0
velvetleaf; [4]
  Velvetleaf plant response rating: 0
velvetleaf; [5]
  Velvetleaf plant response rating: 0
velvetleaf; Preemergence, 500 g ai/ha
  Plant response rating, Velvetleaf: 0
Duck salad; [6]
  Plant response rating, Ducksalad: 0
Duck salad; [7]
  Plant response rating, Ducksalad: 60
Duck salad; [8]
  Plant response rating, Ducksalad: 70
Duck salad; [9]
  Plant response rating, Ducksalad: 80
Barnyardgrass [1]; [3]
  Barnyardgrass plant response rating: 0
Barnyardgrass [1]; [4]
  Barnyardgrass plant response rating: 0
Barnyardgrass [1]; [5]
  Barnyardgrass plant response rating: 40
Barnyardgrass [1]; Preemergence, 500 g ai/ha
  Plant response rating, Barnyardgrass: 90
Umbrella sedge; [6]
  Plant response rating, Sedge, Umbrella: 0
Umbrella sedge; [7]
  Plant response rating, Sedge, Umbrella: 55
Umbrella sedge; [8]
  Plant response rating, Sedge, Umbrella: 75
Umbrella sedge; [10]
  Plant response rating, Sedge, Umbrella: 75
corn; [3]
  Corn plant response rating: 0
corn; [4]
  Corn plant response rating: 0
corn; [5]
  Corn plant response rating: 0
corn; Preemergence, 500 g ai/ha
  Plant response rating, Corn: 0
Barnyardgrass [2]; [6]
  Plant response rating, Barnyardgrass: 0
Barnyardgrass [2]; [7]
  Plant response rating, Barnyardgrass: 45
Barnyardgrass [2]; [8]
  Plant response rating, Barnyardgrass: 60
Barnyardgrass [2]; [9]
  Plant response rating, Barnyardgrass: 70
rice; [6]
  Plant response rating, Rice: 0
rice; [7]
  Plant response rating, Rice: 70
rice; [8]
  Plant response rating, Rice: 70
rice; [9]
  Plant response rating, Rice: 70
crabgrass; [3]
  Crabgrass, Large plant response rating: 40
crabgrass; [4]
  Crabgrass, Large plant response rating: 50
crabgrass; [5]
  Crabgrass, Large plant response rating: 60
crabgrass; Preemergence, 500 g ai/ha
  Plant response rating, Crabgrass, Large: 90

## Cn1nc(C(F)(F)F)c(C[S+]([O-])c2cc(C(C)(C)C)cc[n+]2[O-])c1OCC(F)(F)F (racemic) [Compound 61]
wheat; Postemergence, 125 g ai/ha
  Plant response rating, Wheat: 50
wheat; [4]
  Wheat plant response rating: 60
wheat; [5]
  Wheat plant response rating: 50
wheat; Preemergence, 500 g ai/ha
  Plant response rating, Wheat: 100
Redroot pigweed; Postemergence, 125 g ai/ha
  Plant response rating, Pigweed: 40
Redroot pigweed; [4]
  Pigweed plant response rating: 60
Redroot pigweed; [5]
  Pigweed plant response rating: 80
Redroot pigweed; Preemergence, 500 g ai/ha
  Plant response rating, Pigweed: 100
morningglory; Postemergence, 125 g ai/ha
  Plant response rating, Morningglory: 0
morningglory; [4]
  Morningglory plant response rating: 70
morningglory; [5]
  Morningglory plant response rating: 60
morningglory; Preemergence, 500 g ai/ha
  Plant response rating, Morningglory: 100
Giant foxtail; Postemergence, 125 g ai/ha
  Plant response rating, Foxtail, Giant: 50
Giant foxtail; [4]
  Foxtail, Giant plant response rating: 70
Giant foxtail; [5]
  Foxtail, Giant plant response rating: 100
Giant foxtail; Preemergence, 500 g ai/ha
  Plant response rating, Foxtail, Giant: 100
velvetleaf; Postemergence, 125 g ai/ha
  Plant response rating, Velvetleaf: 0
velvetleaf; [4]
  Velvetleaf plant response rating: 70
velvetleaf; [5]
  Velvetleaf plant response rating: 0
velvetleaf; Preemergence, 500 g ai/ha
  Plant response rating, Velvetleaf: 100
Duck salad; [11]
  Plant response rating, Ducksalad: 0
Duck salad; [10]
  Plant response rating, Ducksalad: 90
Barnyardgrass [1]; Postemergence, 125 g ai/ha
  Plant response rating, Barnyardgrass: 30
Barnyardgrass [1]; [4]
  Barnyardgrass plant response rating: 80
Barnyardgrass [1]; [5]
  Barnyardgrass plant response rating: 0
Barnyardgrass [1]; Preemergence, 500 g ai/ha
  Plant response rating, Barnyardgrass: 100
Umbrella sedge; [11]
  Plant response rating, Sedge, Umbrella: 0
Umbrella sedge; [10]
  Plant response rating, Sedge, Umbrella: 100
corn; Postemergence, 125 g ai/ha
  Plant response rating, Corn: 30
corn; [4]
  Corn plant response rating: 70
corn; [5]
  Corn plant response rating: 0
corn; Preemergence, 500 g ai/ha
  Plant response rating, Corn: 50
Barnyardgrass [2]; [11]
  Plant response rating, Barnyardgrass: 30
Barnyardgrass [2]; [10]
  Plant response rating, Barnyardgrass: 30
rice; [11]
  Plant response rating, Rice: 20
rice; [10]
  Plant response rating, Rice: 50
crabgrass; Postemergence, 125 g ai/ha
  Plant response rating, Crabgrass, Large: 30
crabgrass; [4]
  Crabgrass, Large plant response rating: 60
crabgrass; [5]
  Crabgrass, Large plant response rating: 70
crabgrass; Preemergence, 500 g ai/ha
  Plant response rating, Crabgrass, Large: 100
